Experimental data as given in patent US12077503B2, “Substituted cyclic amides and their use as herbicides” (FMC CORPORATION, priority 2015, dated 2024).

Key:
Format in all cases: in vivo
[1] = system: rice (Oryra sativa); test: Test B flooded paddy test; conditions: 250 g ai/ha, Flood, 0 to 100 scale where 0 is no effect and 100 is complete control
In short: (§1)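 Plants at 2-leaf stage flooded to 3 cm above soil, with compounds applied directly to paddy water and that depth maintained. Plants kept in greenhouse 13–15 d. Visual rating versus controls on a 0 (no effect) to 100 (complete control) scale.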

[2] = system: barnyardgrass (Echinochloa crus-galli); test: Test B flooded paddy test; conditions: 250 g ai/ha, Flood, 0 to 100 scale where 0 is no effect and 100 is complete control
In short: as §1

[3] = system: ducksalad (Heteranthera limosa); test: Test B flooded paddy test; conditions: 250 g ai/ha, Flood, 0 to 100 scale where 0 is no effect and 100 is complete control
In short: as §1

[4] = system: sedge, umbrella (small-flower umbrella sedge, Cyperus difformis); test: Test B flooded paddy test; conditions: 250 g ai/ha, Flood, 0 to 100 scale where 0 is no effect and 100 is complete control
In short: as §1

[5] = system: ryegrass, Italian (Italian ryegrass, Lolium multiflorum); test: Test A preemergence
In short: (§2)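 Seeded soil received test chemicals as a preemergence directed spray, and seedlings at one to two leaves, 2–10 cm tall, received them postemergence, in a non-phytotoxic, surfactant-containing solvent mixture. Pots were held in a greenhouse for approximately 10 d, then rated for injury from 0, no effect, to 100, complete control.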

[6] = system: barnyardgrass (Echinochloa crus-galli); test: Test A preemergence
In short: as §2

[7] = system: giant foxtail (Setaria faberii); test: Test A preemergence
In short: as §2

[8] = system: pigweed (Amaranthus retroflexus); test: Test A preemergence
[9] = system: ragweed (common ragweed, Ambrosia elatior); test: Test A preemergence
In short: as §2

[10] = system: Kochia (Kochia scoparia); test: Test A preemergence
In short: as §2

[11] = system: corn (Zea mays); test: Test A postemergence
In short: as §2

[12] = system: wheat (Triticum aestivum); test: Test A postemergence
In short: as §2

[13] = system: ryegrass, Italian (Italian ryegrass, Lolium multiflorum); test: Test A postemergence
In short: as §2

[14] = system: barnyardgrass (Echinochloa crus-galli); test: Test A postemergence
In short: as §2

[15] = system: giant foxtail (Setaria faberii); test: Test A postemergence
In short: as §2

[16] = system: pigweed (Amaranthus retroflexus); test: Test A postemergence
In short: as §2

[17] = system: blackgrass (Alopecurus myosuroides); test: Test A postemergence
In short: as §2

[18] = system: ragweed (common ragweed, Ambrosia elatior); test: Test A postemergence
In short: as §2

[19] = system: Galium (catchweed bedstraw, Galium aparine); test: Test A postemergence
In short: as §2

[20] = system: Kochia (Kochia scoparia); test: Test A postemergence
In short: as §2

[21] = 125 g ai/ha, Preemergence, visual injury after approximately 10 d, 0 to 100 scale where 0 is no effect and 100 is complete control
[22] = 500 g ai/ha, preemergence, 0 to 100 scale, 0 = no effect, 100 = complete control
[23] = 125 g ai/ha, postemergence, visual rating after approx. 10 d, 0 to 100 scale (0 no effect, 100 complete control)
[24] = Postemergence, 500 g ai/ha, 0 to 100 scale where 0 is no effect and 100 is complete control

## O=C(Nc1ccc(F)c(F)c1F)[C@H]1C(=O)N(C2CC2)CC[C@@H]1c1ccc(F)cc1 [Compound 1004]
[1]; Oryza sativa, read-out: Rice plant response rating
  pest or weed control at 250 g/ha: 0%
[2]; Echinochloa crus-galli, read-out: Barnyardgrass plant response rating
  pest or weed control at 250 g/ha: 0%
[3]; Heteranthera limosa, read-out: Ducksalad plant response rating
  pest or weed control at 250 g/ha: 60%
[4]; Cyperus difformis, read-out: Sedge, Umbrella plant response rating
  pest or weed control at 250 g/ha: 0%
[5]; Lolium multiflorum, pre-emergence, 240 h, 31 g ai/ha, Preemergence, 0 to 100 scale where 0 is no effect and 100 is complete control, read-out: Ryegrass, Italian plant response rating
  pest or weed control at 31 g/ha: 0%
[5]; Lolium multiflorum, pre-emergence, 240 h, 125 g ai/ha, Preemergence, visual injury rating after approximately 10 d, read-out: Ryegrass, Italian plant response rating (0 to 100 scale, 0 is no effect, 100 is complete control)
  pest or weed control at 125 g/ha: 0%
[6]; Echinochloa crus-galli, pre-emergence, 240 h, 125 g ai/ha, Preemergence, visual injury rating after approximately 10 d, read-out: Barnyardgrass plant response rating (0 to 100 scale, 0 is no effect, 100 is complete control)
  pest or weed control at 125 g/ha: 0%
[6]; Echinochloa crus-galli, pre-emergence, 240 h, Preemergence, 31 g ai/ha, 0 to 100 scale (0 no effect, 100 complete control), read-out: Plant response rating, Barnyardgrass
  pest or weed control at 31 g/ha: 0%
[7]; Setaria faberi, pre-emergence, 240 h, 125 g ai/ha, Preemergence, visual injury rating after approximately 10 d, read-out: Foxtail, Giant plant response rating (0 to 100 scale, 0 is no effect, 100 is complete control)
  pest or weed control at 125 g/ha: 30%
[7]; Setaria faberi, pre-emergence, 240 h, Preemergence, 31 g ai/ha, 0 to 100 scale (0 no effect, 100 complete control), read-out: Plant response rating, Foxtail, Giant
  pest or weed control at 31 g/ha: 0%
[8]; Amaranthus retroflexus, pre-emergence, 240 h, 31 g ai/ha, Preemergence, 0 to 100 scale where 0 is no effect and 100 is complete control, read-out: Pigweed plant response rating
  pest or weed control at 31 g/ha: 0%
[8]; Amaranthus retroflexus, pre-emergence, 240 h, 125 g ai/ha, Preemergence, visual injury rating after approximately 10 d, read-out: Pigweed plant response rating (0 to 100 scale, 0 is no effect, 100 is complete control)
  pest or weed control at 125 g/ha: 0%
[9]; Ambrosia artemisiifolia, pre-emergence, 240 h, 31 g ai/ha, Preemergence, 0 to 100 scale where 0 is no effect and 100 is complete control, read-out: Ragweed plant response rating
  pest or weed control at 31 g/ha: 0%
[9]; Ambrosia artemisiifolia, pre-emergence, 240 h, 125 g ai/ha, Preemergence, visual injury rating after approximately 10 d, read-out: Ragweed plant response rating (0 to 100 scale, 0 is no effect, 100 is complete control)
  pest or weed control at 125 g/ha: 0%
[10]; Bassia scoparia, pre-emergence, 240 h, 31 g ai/ha, Preemergence, 0 to 100 scale where 0 is no effect and 100 is complete control, read-out: Kochia plant response rating
  pest or weed control at 31 g/ha: 0%
[10]; Bassia scoparia, pre-emergence, 240 h, 125 g ai/ha, Preemergence, visual injury rating after approximately 10 d, read-out: Kochia plant response rating (0 to 100 scale, 0 is no effect, 100 is complete control)
  pest or weed control at 125 g/ha: 0%
[11]; Zea mays, post-emergence, 240 h, 125 g ai/ha, Postemergence, visual injury after approximately 10 d, 0 to 100 scale where 0 is no effect and 100 is complete control
  Corn plant response rating (crop injury, 0 = no effect, 100 = complete kill) at 125 g/ha: 0%
[11]; Zea mays, post-emergence, 240 h, Postemergence, 31 g ai/ha, visual injury after approx. 10 d, 0 to 100 scale, 0 no effect, 100 complete control
  Corn plant response rating (crop injury, 0 = no effect, 100 = complete kill) at 31 g/ha: 0%
[12]; Triticum aestivum, post-emergence, 240 h, 125 g ai/ha, Postemergence, visual injury after approximately 10 d, 0 to 100 scale where 0 is no effect and 100 is complete control, read-out: Plant response rating, Wheat
  plant injury at 125 g/ha: 0%
[12]; Triticum aestivum, post-emergence, 240 h, Postemergence, 31 g ai/ha, visual injury after approx. 10 d, 0 to 100 scale, 0 no effect, 100 complete control, read-out: Plant response rating, Wheat
  plant injury at 31 g/ha: 0%
[13]; Lolium multiflorum, post-emergence, 240 h, 125 g ai/ha, Postemergence, visual injury after approximately 10 d, 0 to 100 scale where 0 is no effect and 100 is complete control, read-out: Plant response rating, Ryegrass, Italian
  pest or weed control at 125 g/ha: 0%
[13]; Lolium multiflorum, post-emergence, 240 h, Postemergence, 31 g ai/ha, visual injury after approx. 10 d, 0 to 100 scale, 0 no effect, 100 complete control, read-out: Plant response rating, Ryegrass, Italian
  pest or weed control at 31 g/ha: 0%
[14]; Echinochloa crus-galli, post-emergence, 240 h, 125 g ai/ha, Postemergence, visual injury after approximately 10 d, 0 to 100 scale where 0 is no effect and 100 is complete control, read-out: Plant response rating, Barnyardgrass
  pest or weed control at 125 g/ha: 0%
[14]; Echinochloa crus-galli, post-emergence, 240 h, Postemergence, 31 g ai/ha, visual injury after approx. 10 d, 0 to 100 scale, 0 no effect, 100 complete control, read-out: Plant response rating, Barnyardgrass
  pest or weed control at 31 g/ha: 0%
[15]; Setaria faberi, post-emergence, 240 h, 125 g ai/ha, Postemergence, visual injury after approximately 10 d, 0 to 100 scale where 0 is no effect and 100 is complete control, read-out: Plant response rating, Foxtail, Giant
  pest or weed control at 125 g/ha: 0%
[15]; Setaria faberi, post-emergence, 240 h, Postemergence, 31 g ai/ha, visual injury after approx. 10 d, 0 to 100 scale, 0 no effect, 100 complete control, read-out: Plant response rating, Foxtail, Giant
  pest or weed control at 31 g/ha: 0%
[16]; Amaranthus retroflexus, post-emergence, 240 h, 125 g ai/ha, Postemergence, visual injury after approximately 10 d, 0 to 100 scale where 0 is no effect and 100 is complete control, read-out: Plant response rating, Pigweed
  pest or weed control at 125 g/ha: 0%
[16]; Amaranthus retroflexus, post-emergence, 240 h, Postemergence, 31 g ai/ha, visual injury after approx. 10 d, 0 to 100 scale, 0 no effect, 100 complete control, read-out: Plant response rating, Pigweed
  pest or weed control at 31 g/ha: 0%
[17]; Alopecurus myosuroides, post-emergence, 240 h, 125 g ai/ha, Postemergence, visual injury after approximately 10 d, 0 to 100 scale where 0 is no effect and 100 is complete control, read-out: Plant response rating, Blackgrass
  pest or weed control at 125 g/ha: 0%
[17]; Alopecurus myosuroides, post-emergence, 240 h, Postemergence, 31 g ai/ha, visual injury after approx. 10 d, 0 to 100 scale, 0 no effect, 100 complete control, read-out: Plant response rating, Blackgrass
  pest or weed control at 31 g/ha: 0%
[18]; Ambrosia artemisiifolia, post-emergence, 240 h, 125 g ai/ha, Postemergence, visual injury after approximately 10 d, 0 to 100 scale where 0 is no effect and 100 is complete control, read-out: Plant response rating, Ragweed
  pest or weed control at 125 g/ha: 0%
[18]; Ambrosia artemisiifolia, post-emergence, 240 h, Postemergence, 31 g ai/ha, visual injury after approx. 10 d, 0 to 100 scale, 0 no effect, 100 complete control, read-out: Plant response rating, Ragweed
  pest or weed control at 31 g/ha: 0%
[19]; Galium, post-emergence, 240 h, 125 g ai/ha, Postemergence, visual injury after approximately 10 d, 0 to 100 scale where 0 is no effect and 100 is complete control, read-out: Plant response rating, Galium
  pest or weed control at 125 g/ha: 0%
[19]; Galium, post-emergence, 240 h, Postemergence, 31 g ai/ha, visual injury after approx. 10 d, 0 to 100 scale, 0 no effect, 100 complete control, read-out: Plant response rating, Galium
  pest or weed control at 31 g/ha: 0%
[20]; Bassia scoparia, post-emergence, 240 h, 125 g ai/ha, Postemergence, visual injury after approximately 10 d, 0 to 100 scale where 0 is no effect and 100 is complete control, read-out: Plant response rating, Kochia
  pest or weed control at 125 g/ha: 0%
[20]; Bassia scoparia, post-emergence, 240 h, Postemergence, 31 g ai/ha, visual injury after approx. 10 d, 0 to 100 scale, 0 no effect, 100 complete control, read-out: Plant response rating, Kochia
  pest or weed control at 31 g/ha: 0%

## CN1CC(c2ccc(F)c(C(F)(F)F)c2)C(C(=O)Nc2ccccc2S(C)(=O)=O)C1=O (stereo not drawn) [Compound 612]
[1]; 13 to 15 d
  Plant response rating, Rice: 15
[2]; 13 to 15 d
  Plant response rating, Barnyardgrass: 65
[3]; 13 to 15 d
  Plant response rating, Ducksalad: 100
[4]; 13 to 15 d
  Plant response rating, Sedge, Umbrella: 85
[5]; [21]
  Plant response rating, Ryegrass, Italian: 50
[5]; [22]
  Plant response rating, Ryegrass, Italian: 70
[6]; [21]
  Plant response rating, Barnyardgrass: 90
[6]; [22]
  Plant response rating, Barnyardgrass: 90
[7]; [21]
  Plant response rating, Foxtail, Giant: 90
[7]; [22]
  Plant response rating, Foxtail, Giant: 90
[8]; [21]
  Plant response rating, Pigweed: 70
[8]; [22]
  Plant response rating, Pigweed: 70
[9]; [21]
  Plant response rating, Ragweed: 50
[9]; [22]
  Plant response rating, Ragweed: 50
[10]; [21]
  Plant response rating, Kochia: 20
[10]; [22]
  Plant response rating, Kochia: 20
[11]; [23]
  Plant response rating, Corn: 50
[11]; [24]
  Plant response rating, Corn: 90
[12]; [23]
  Plant response rating, Wheat: 30
[12]; [24]
  Plant response rating, Wheat: 30
[13]; [23]
  Plant response rating, Ryegrass, Italian: 20
[13]; [24]
  Plant response rating, Ryegrass, Italian: 70
[14]; [23]
  Plant response rating, Barnyardgrass: 70
[14]; [24]
  Plant response rating, Barnyardgrass: 90
[15]; [23]
  Plant response rating, Foxtail, Giant: 70
[15]; [24]
  Plant response rating, Foxtail, Giant: 90
[16]; [23]
  Plant response rating, Pigweed: 20
[16]; [24]
  Plant response rating, Pigweed: 50
[17]; [23]
  Plant response rating, Blackgrass: 40
[17]; [24]
  Plant response rating, Blackgrass: 60
[18]; [23]
  Plant response rating, Ragweed: 0
[18]; [24]
  Plant response rating, Ragweed: 20
[19]; [23]
  Plant response rating, Galium: 30
[19]; [24]
  Plant response rating, Galium: 50
[20]; [23]
  Plant response rating, Kochia: 20
[20]; [24]
  Plant response rating, Kochia: 40
